Data published in patent publication US20070244162A1 (priority 2005, published 2007).

Assays:
Format in all cases: cell-based
Botrytis cinerea = tested on: Botrytis cinerea
Septoria tritici = assay: microbe, parasite or virus in culture; details: for IC50: Zymoseptoria tritici, read-out: Fungicidal activity IC50, S. tritici
Monilinia fructicola = assay: microbe, parasite or virus in culture; details: read-out: Fungicidal activity IC50, M. fructicola
Stagonospora nodorum = assay: microbe, parasite or virus in culture
Phytophthora infestans = assay: microbe, parasite or virus in culture; details: read-out: Fungicidal activity IC50, P. infestans

| SMILES | Fungicidal activity IC50, B. cinerea (Botrytis cinerea) | Fungicidal activity IC50, S. tritici (Septoria tritici) | IC50 (Monilinia fructicola) [nM] | IC50 (Stagonospora nodorum; Parastagonospora nodorum, read-out: Fungicidal activity IC50, S. nodorum) [nM] | IC50 (Phytophthora infestans) [µM] | Fungicidal activity IC50, S. nodorum (Stagonospora nodorum) | IC50 (Septoria tritici) [nM] |
| --- | --- | --- | --- | --- | --- | --- | --- |
| OC(c1cccnc1)c1c(-c2ccc(Cl)cc2)csc1-c1ccc(Cl)s1 (stereo not shown) [Compound 4, 4-(4-Chlorophenyl)-2-(5-chloro-2-thienyl)-3-[(3-pyridyl)hydroxymethyl]-thiophene] | B (c) | A (d) | < 100 | 110 to 1000 | > 100 |  |  |
| OC(c1cccnc1)c1c(-c2ccc(F)cc2F)csc1-c1ccc(Cl)cc1 (stereo not shown) [Compound 6, 2-(4-Chlorophenyl)-4-(2,4-difluorophenyl)-3-[(3-pyridyl)hydroxymethyl]-thiophene] | B (d) | A (b) | < 100 |  | > 100 | B (c) |  |
| OC(c1cccnc1)c1c(-c2ccc(Cl)cc2)csc1-c1ccc(Cl)cc1 (stereo not shown) [Compound 8, 2,4-Bis-(4-chlorophenyl)-3-[(3-pyridyl)hydroxymethyl]-thiophene] |  | A (d) |  |  | > 100 | B (d) |  |
| OC(c1cccnc1)c1c(-c2ccc(Cl)cc2)csc1-c1cccs1 (stereo not shown) [Compound 9, 4-(4-Chlorophenyl)-3-[(3-pyridyl)hydroxymethyl]-2-(2-thienyl)thiophene] | B (d) | A (c) | < 100 |  | > 100 | A (d) |  |
| OC(c1cccnc1)c1c(-c2cccs2)csc1-c1ccc(Cl)cc1 (stereo not shown) [Compound 12, 2-(4-Chlorophenyl)-3-[(3-pyridyl)hydroxymethyl]-4-(2-thienyl)thiophene] | A (d) |  | < 100 |  | > 100 | A (d) | < 100 |
| Cc1ccc(-c2csc(-c3ccc(F)cc3F)c2C(O)c2cccnc2)s1 (stereo not shown) [Compound 14, 2-(2,4-Difluorophenyl)-4-(5-methyl-2-thienyl)-3-[(3-pyridyl)hydroxymethyl]-thiophene] | B (d) |  | < 100 |  | > 100 | A (b) | < 100 |
